# Experimental data published in patent US6977254B2, “Hydroxy cyclohexenyl phenyl carboxamides tocolytic oxytocin receptor antagonists” (Wyeth, priority 2001, dated 2005).
# Target: T1, human vasopressin V1a receptor subtype (Homo sapiens, UniProt P37288)
# T1 construct: host or cells: CHO cells, stably transfected (pZeoSV vector for the Thibonnier line); membranes
# Test: Vasopressin binding in CHO cell membranes expressing human vasopressin V1a subtype receptors ([3H]Manning ligand)
# Settings: 100 nM, value without parentheses
# Excerpt: Vasopressin Binding in Chinese Hamster Ovary Cell Membranes Expressing Human Vasopressin V1a Subtype Receptors
# Chinese hamster ovary cells (CHO cells) stably transfected with the human vasopressin V1a subtype receptors were either obtained from Biosignal Inc., 1744 rue Williams, Montreal, Quebec, Canada or obtained from M. Thibonnier, Case Western Reserve University School of Medicine, Cleveland, Ohio.
# A. Passaging and Amplification of Cells:
# CHO cells transfected with the human vasopressin V1a subtype receptors obtained from M. Thibonnier (pZeoSV vector) are allowed to grow to confluency (approx. >90%) in T-150 flasks under sterile conditions, in a cell culture medium of F-12 Nutrient Mixture (HAM) with L-glutamine (Gibco Cat. #11765-054) containing 15 mM HEPES (Gibco Cat. #15630-080), 1% antibiotic/antimycotic (add 5 mL 100×, Gibco Cat. #15240-062 per 500 mL F-12), 250 μg/mL Zeocin (add 1.25 mL of 100 mg/mL Invitrogen R-250-01 per 500 mL F-12) and 10% Fetal Bovine Serum (Qualified, heat inactivated, Gibco Cat. #16140-063). The medium is removed by aspiration and the cells are washed with 10 mL of Hank's Balanced Salt solution (Gibco Cat. #14175-095). The salt solution is removed by aspiration and the cells are trypsinized with 5 mL of trypsin-EDTA (0.05% trypsin, 0.53 mM EDTA-4Na, Gibco Cat. #25300-070) for 1 min. The trypsin is removed by aspiration and the cells dislodged by tapping. Cell Culture medium (eg, 30 mL for 1:30 split) is immediately added and mixed well to inactivate trypsin. 1 mL of detached cells is added to new culture flasks containing fresh cell culture medium (eg, into 25 mL per T-150 flask), and mixed gently. The cells are incubated at 37° C. in 5% CO2. The medium is changed at 3 to 4 days interval (or as appropriate). The cells grow to confluency (approx. >75%-95%) within 7-8 days. All steps are done under sterile conditions.
# The cells are washed twice gently with Hank's Balanced Salt solution (e.g,. use 10 mL per T-150 flask). The excess is removed and the cells are bathed for 15-30 min. in an enzyme-free Cell Dissociation Buffer (e.g. use 8 mL Hank's Based, Gibco Cat. #13150-016 per T-150 flask) until the cells are loosened. The contents are transferred to centrifuge tubes (50 mL size) kept in ice bath. All subsequent steps are done at 4° C. The tubes are centrifuged at 300×g for 15 min (1380 rpm on SORVAL, Model RT6000D, using rotor for 50 mL tubes). The supernatant is discarded and the cells suspended in homogeneizing buffer(10 mM Tris-HCl containing 0.25 M sucrose and 1 mM EDTA, pH 7.4) ensuring that the volume of the buffer is about ten times the volume of the cell pellet. The cells are pooled into a centrifuge tube (50 mL) and homogenized with Polytron at setting 6 for 10 sec. The homogenate is transferred into a Potter-Elvjehm homogenizer and homogenized with 3 strokes. The homogenate is centrifuged at 1500×g for 10 min at 4° C. (3100 rpm using SORVAL, model RT6000D, using rotor for 50 mL tubes). The pellet is discarded. The supernatant is centrifuged at 100,000×g for 60 min. at 4° C. (Beckman L8-80M ultracentrifuge; spin at 37,500 rpm with rotor type 70 Ti for 50 mL tubes; 38,000 rpm with type 80Ti for 15 mL tubes; or 35,800 rpm with rotor type 45Ti). The supemantant is discarded and the pellet suspended in 3 to 4 mL of Tris buffer (50 mM TRIS-HCl, pH 7.4). The protein content is estimated by the Bradford or Lowry method. The volume of the membrane suspension is adjusted with the membrane buffer (50 mM Tris-HCl containing 0.1% BSA and 0.1 mM PMSF) to give 3.0 mg/mL (or as appropriate) of protein. The membranes are aliquoted and stored at −70° C.
# C. Radioligand Binding Assay: […]
# T1 sequence (P37288 whole entry): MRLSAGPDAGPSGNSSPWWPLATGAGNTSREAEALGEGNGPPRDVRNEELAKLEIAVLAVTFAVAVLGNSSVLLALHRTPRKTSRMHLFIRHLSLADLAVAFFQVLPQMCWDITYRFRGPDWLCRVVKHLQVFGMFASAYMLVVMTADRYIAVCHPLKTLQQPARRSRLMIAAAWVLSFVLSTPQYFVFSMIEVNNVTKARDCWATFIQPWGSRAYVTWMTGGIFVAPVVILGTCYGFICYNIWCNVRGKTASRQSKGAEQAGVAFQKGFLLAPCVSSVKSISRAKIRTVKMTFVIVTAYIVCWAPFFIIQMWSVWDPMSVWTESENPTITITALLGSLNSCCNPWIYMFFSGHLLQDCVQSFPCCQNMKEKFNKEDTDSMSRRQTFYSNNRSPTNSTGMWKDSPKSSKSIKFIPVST
Structure (SMILES),inhibition at 0.1 µM [%],V1a % inhibition @ 100 nM [%]
"CCOC(=O)[C@H](Cc1ccc(O)cc1)NC(=O)c1ccc2n1Cc1ccccc1N(C(=O)c1ccc(C3=CCCCC3)c(C)c1)C2 [Example 9, (2S)-2-{[10-(4-Cyclohex-1-en-1-yl-3-methyl-benzoyl)-10,11-dihydro-5H-pyrrolo[2,1-c][1,4]benzodiazepine-3-carbonyl]-amino}-3-(4-hydroxy-phenyl)-propionic acid ethyl ester]",6,
Cc1cc(C(=O)N2Cc3ccc(C(=O)N[C@@H](Cc4ccc(O)cc4)C(=O)O)n3Cc3ccccc32)ccc1C1=CCCCC1 [Example 10],,14
"COC(=O)[C@H](CO)NC(=O)c1ccc2n1Cc1ccccc1N(C(=O)c1ccc(C3=CCCCC3)c(C)c1)C2 [Example 11, (2S)-2-{[10-(4-Cyclohex-1-en-1-yl-3-methyl-benzoyl)-10,11-dihydro-5H-pyrrolo[2,1-c][1,4]benzodiazepine-3-carbonyl]-amino}-3-hydroxy-propionic acid methyl ester]",6,
"COC(=O)[C@@H](CO)NC(=O)c1ccc2n1Cc1ccccc1N(C(=O)c1ccc(C3=CCCCC3)c(C)c1)C2 [Example 12, (2R)-2-{[10-(4-Cyclohex-1-en-1-yl-3-methyl-benzoyl)-10,11-dihydro-5H-pyrrolo[2,1-c][1,4]benzodiazepine-3-carbonyl]-amino}-3-hydroxy-propionic acid methyl ester]",16,
"Cc1cc(C(=O)N2Cc3ccc(C(=O)N[C@@H](CO)C(=O)O)n3Cc3ccccc32)ccc1C1=CCCCC1 [Example 13, (2S)-2-{[10-(4-Cyclohex-1-en-1-yl-3-methyl-benzoyl)-10,11-dihydro-5H-pyrrolo[2,1-c][1,4]benzodiazepine-3-carbonyl]-amino}-3-hydroxy-propionic acid]",5,
"Cc1cc(C(=O)N2Cc3ccc(C(=O)N[C@H](CO)C(=O)O)n3Cc3ccccc32)ccc1C1=CCCCC1 [Example 14, (2R)-2-{[10-(4-Cyclohex-1-en-1-yl-3-methyl-benzoyl)-10,11-dihydro-5H-pyrrolo[2,1-c][1,4]benzodiazepine-3-carbonyl]-amino}-3-hydroxy-propionic acid]",6,
"Cc1cc(C(=O)N2Cc3ccc(C(=O)O)n3Cc3ccccc32)ccc1C1=CCCc2ccccc21 [Example 15B, 10-[4-(3,4-Dihydro-naphthalen-1-yl)-3-methyl-benzoyl]-10,11-dihydro-5H-pyrrolo[2,1-c][1,4]benzodiazepine-3-carboxylic acid]",-2,
"Cc1cc(C(=O)N2Cc3ccc(C(=O)N(CCO)CCO)n3Cc3ccccc32)ccc1C1=CCCc2ccccc21 [Example 16, {10-[4-(3,4-Dihydro-naphthalen-1-yl)-3-methyl-benzoyl]-10,11-dihydro-5H-pyrrolo[2,1-c][1,4]benzodiazepin-3-yl}-3-carboxylic acid bis-(2-hydroxy-ethyl)-amide]",,6
"Cc1cc(C(=O)N2Cc3ccc(C(=O)N4CCN(CCO)CC4)n3Cc3ccccc32)ccc1C1=CCCCC1 [Example 17, {10-[4-(1-Cyclohex-1-en-1-yl)-3-methylbenzoyl]-10,11-dihydro-5H-pyrrolo[2,1-c][1,4]benzodiazepin-3-yl}[4-(2-hydroxyethyl)-1-piperazinyl]methanone]",,31

# Same assay, conditions: value in parentheses
row,Structure (SMILES),IC50 [nM]
1,"COC[C@@H](OC)[C@@H](OC)[C@H](OC)[C@H](CN(C)C(=O)c1ccc2n1Cc1ccccc1N(C(=O)c1ccc(C3=CCCCC3)c(C)c1)C2)OC [Example 8, 10-(4-Cyclohex-1-en-1-yl-3-methylbenzoyl)-N-methyl-N-[(2S,3R,4R,5R)-2,3,4,5,6-pentamethoxyhexyl]-10,11-dihydro-5H-pyrrolo[2,1-c][1,4]benzodiazepine-3-carboxamide]",315
2,Cc1cc(C(=O)N2Cc3ccc(C(=O)N(C)C[C@H](O)[C@@H](O)[C@H](O)[C@H](O)CO)n3Cc3ccccc32)ccc1C1=CCCc2ccccc21 [Example 15],646
